{"source": "patent US11161844B2", "about": "“Cyclic substituted imidazo[4,5-c]quinoline derivatives” (Pfizer Inc., priority 2017, dated 2021)", "key": {"[1]": {"molecular_target": "LRRK2, WT (GST-tagged truncated LRRK2) (Homo sapiens (Human), UniProt Q5S007)", "sequence (Q5S007 970-2527)": "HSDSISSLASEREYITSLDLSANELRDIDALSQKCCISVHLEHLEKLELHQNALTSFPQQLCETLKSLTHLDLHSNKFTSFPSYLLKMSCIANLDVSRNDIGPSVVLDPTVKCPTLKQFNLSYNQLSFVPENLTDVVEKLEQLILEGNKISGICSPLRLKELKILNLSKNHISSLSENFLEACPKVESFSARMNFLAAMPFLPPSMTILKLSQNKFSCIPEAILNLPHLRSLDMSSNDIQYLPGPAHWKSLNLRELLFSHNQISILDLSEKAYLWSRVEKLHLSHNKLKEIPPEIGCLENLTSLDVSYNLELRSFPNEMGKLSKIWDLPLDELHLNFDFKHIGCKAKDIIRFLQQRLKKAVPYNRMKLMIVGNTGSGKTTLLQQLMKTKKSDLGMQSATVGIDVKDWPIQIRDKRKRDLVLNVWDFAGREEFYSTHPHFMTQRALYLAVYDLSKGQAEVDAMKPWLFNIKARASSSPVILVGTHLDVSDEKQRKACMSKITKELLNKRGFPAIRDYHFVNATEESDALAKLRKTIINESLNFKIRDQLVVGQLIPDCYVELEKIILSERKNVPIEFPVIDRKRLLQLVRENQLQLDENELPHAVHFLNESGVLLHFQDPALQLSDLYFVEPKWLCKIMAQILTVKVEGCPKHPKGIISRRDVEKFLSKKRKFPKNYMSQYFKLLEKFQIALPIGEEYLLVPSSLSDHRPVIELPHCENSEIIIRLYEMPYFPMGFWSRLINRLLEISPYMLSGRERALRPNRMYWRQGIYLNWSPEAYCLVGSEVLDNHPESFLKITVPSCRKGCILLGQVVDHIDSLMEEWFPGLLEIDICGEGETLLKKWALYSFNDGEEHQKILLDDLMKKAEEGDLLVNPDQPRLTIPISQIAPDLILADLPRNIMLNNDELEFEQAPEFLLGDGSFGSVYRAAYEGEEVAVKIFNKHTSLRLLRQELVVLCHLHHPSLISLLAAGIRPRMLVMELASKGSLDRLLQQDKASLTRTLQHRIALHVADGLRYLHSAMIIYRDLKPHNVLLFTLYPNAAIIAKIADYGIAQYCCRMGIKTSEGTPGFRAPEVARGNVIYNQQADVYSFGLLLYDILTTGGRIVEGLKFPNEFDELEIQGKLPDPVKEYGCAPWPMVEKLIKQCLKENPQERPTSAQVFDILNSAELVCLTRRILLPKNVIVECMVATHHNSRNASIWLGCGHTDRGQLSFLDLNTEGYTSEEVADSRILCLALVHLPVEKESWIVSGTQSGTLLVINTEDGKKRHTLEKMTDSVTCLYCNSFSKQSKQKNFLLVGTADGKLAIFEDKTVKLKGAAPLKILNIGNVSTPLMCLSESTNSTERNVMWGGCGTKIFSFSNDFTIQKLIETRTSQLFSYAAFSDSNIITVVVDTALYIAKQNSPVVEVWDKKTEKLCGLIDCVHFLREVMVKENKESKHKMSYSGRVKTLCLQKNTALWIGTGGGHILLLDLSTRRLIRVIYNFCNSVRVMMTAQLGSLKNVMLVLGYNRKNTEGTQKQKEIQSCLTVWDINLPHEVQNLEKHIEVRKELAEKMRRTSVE", "assay": "LRRK2 kinase assay (Lantha Screen), wild type", "format": "biochemical", "conditions": "100 nM LRRKtide, 1 mM ATP, 2 μg/mL enzyme; geometric mean of 2-4 determinations unless otherwise indicated", "method": "(§1) LRRK2 kinase activity was measured using Lantha Screen technology from Invitrogen. GST-tagged truncated LRRK2 from Invitrogen (Cat #PV4874) was incubated with a fluorescein-labeled peptide substrate based upon ezrin/radixin/moesin (ERM), also known as LRRKtide (Invitrogen cat #PR8976A), in the presence of a dose response of compound. Upon completion, the assay was stopped and detected with a terbium labeled anti-phospho-ERM antibody (Invitrogen, cat #PR8975A). The assay was carried out under the following protocol: The compound dose response was prepared by diluting compound to a top concentration of 0.3 mM in 100% DMSO and serial diluted by half-log in DMSO to give an 11 point curve, 100× final assay concentration. Using Echo acoustic dispensing, 60 nL of compound was transferred to a low volume Corning 384-well assay plate. 3 μL of a working solution of substrate (200 nM LRRKtide, 2 mM ATP) prepared in assay buffer (50 mM HEPES, pH 7.5, 3 mM MgCl2, with 2 mM DTT and 0.01% Brij35 added fresh) was added to the 60 nL compound assay plate. The kinase reaction was started with 3 μL of a working solution of LRRK2 enzyme at a concentration of 4 μg/mL. The final reaction concentrations were 100 nM LRRKtide, 1 mM ATP, 2 μg/mL LRRK2 enzyme and a compound dose response with a top dose of 3 μM. The reaction was allowed to progress at room temperature for 30 minutes and then stopped with the addition of 6 μL of detection buffer (20 mM Tris pH 7.6, 0.01% NP-40, 6 mM EDTA with 2 nM terbium labeled anti-phospho-ERM). After an incubation of 1 hour at room temperature, the plate was read on an Envision with an excitation wavelength of 340 nm and a reading emission at both 520 nm and 495 nm. The ratio of the 520 nm and 495 nm emission was used to analyze the data. Inhibition of mutant G2019S LRRK2 (Invitrogen cat #PV4881) was measured in the exact same method. All final concentrations of substrate ATP and enzyme were the same."}, "[2]": {"molecular_target": "mutant G2019S LRRK2 (Homo sapiens (Human), UniProt Q5S007, G2019S)", "sequence (Q5S007 970-2527 G2019S)": "as the sequence (Q5S007 970-2527) above, with G1050S counted along it", "assay": "LRRK2 kinase assay (Lantha Screen), mutant G2019S", "format": "biochemical", "conditions": "100 nM LRRKtide, 1 mM ATP, 2 μg/mL enzyme; single determination unless otherwise indicated", "method": "as §1"}}}
{"smiles": "CN1CC[C@@H](n2c(C3CCC(F)C3)nc3cnc4ccc(C#N)cc4c32)C1", "note": "(stereo partly drawn) [Example 32, 2-[cis-3-fluorocyclopentyl]-1-[(3R)-1-methylpyrrolidin-3-yl]-1H-imidazo[4,5-c]quinoline-8-carbonitrile]", "values": [{"measurement": "IC50", "setting": "[1]", "result": 19.6, "unit": "nM"}, {"measurement": "IC50", "setting": "[2]", "result": 37.9, "unit": "nM"}]}
{"smiles": "CN1CC(n2c(C3CCC(F)C3)nc3cnc4ccc(C#N)cc4c32)C(F)(F)C1", "note": "(stereo not drawn) [Example 59, 1-(4,4-difluoro-1-methylpyrrolidin-3-yl)-2-(3-fluorocyclopentyl)-1H-imidazo[4,5-c]quinoline-8-carbonitrile]", "values": [{"measurement": "IC50", "setting": "[1]", "result": 30.5, "unit": "nM"}, {"measurement": "IC50", "setting": "[2]", "result": 141, "unit": "nM"}]}
{"smiles": "CC1(C)CC(n2c(C3CCC(F)C3)nc3cnc4ccc(C#N)cc4c32)CCO1", "note": "(stereo not drawn) [Example 41, 1-(2,2-dimethyltetrahydro-2H-pyran-4-yl)-2-(3-fluorocyclopentyl)-1H-imidazo[4,5-c]quinoline-8-carbonitrile]", "values": [{"measurement": "IC50", "setting": "[1]", "result": 64.1, "unit": "nM"}, {"measurement": "IC50", "setting": "[2]", "result": 49.6, "unit": "nM"}]}
{"smiles": "C[C@@H]1C[C@H](n2c([C@H]3CCOC3)nc3cnc4ccc(C(F)(F)F)cc4c32)CCO1", "note": "[Example 26, 1-[(2R,4R)-2-methyltetrahydro-2H-pyran-4-yl]-2-[(3R)-tetrahydrofuran-3-yl]-8-(trifluoromethyl)-1H-imidazo[4,5-c]quinoline]", "values": [{"measurement": "IC50", "setting": "[1]", "result": 9.79, "unit": "nM"}, {"measurement": "IC50", "setting": "[2]", "result": 5.71, "unit": "nM"}]}
{"smiles": "CC1(C)CC(n2c(C3CCC(F)C3)nc3cnc4ccc(C#N)cc4c32)CCO1", "note": "(stereo not drawn) [Example 42, 1-(2,2-dimethyltetrahydro-2H-pyran-4-yl)-2-(3-fluorocyclopentyl)-1H-imidazo[4,5-c]quinoline-8-carbonitrile]", "values": [{"measurement": "IC50", "setting": "[1]", "result": 46.1, "unit": "nM"}, {"measurement": "IC50", "setting": "[2]", "result": 46, "unit": "nM"}]}
{"smiles": "C[C@@H]1C[C@H](n2c(C3CCCO3)nc3cnc4ccc(Cl)cc4c32)CCO1", "note": "(stereo partly drawn) [Example 9, 8-chloro-1-[(2R,4R)-2-methyltetrahydro-2H-pyran-4-yl]-2-(tetrahydrofuran-2-yl)-1H-imidazo[4,5-c]quinoline]", "values": [{"measurement": "IC50", "setting": "[1]", "result": 18.5, "unit": "nM"}, {"measurement": "IC50", "setting": "[2]", "result": 11.3, "unit": "nM"}]}
{"smiles": "C[C@@H]1C[C@H](n2c(C3CCC(F)(F)CC3)nc3cnc4ccc(C#N)cc4c32)CCO1", "note": "[Example 17, 2-(4,4-difluorocyclohexyl)-1-[(2R,4R)-2-methyltetrahydro-2H-pyran-4-yl]-1H-imidazo[4,5-c]quinoline-8-carbonitrile]", "values": [{"measurement": "IC50", "setting": "[1]", "result": 15.6, "unit": "nM"}, {"measurement": "IC50", "setting": "[2]", "result": 11.2, "unit": "nM"}]}
{"smiles": "C[C@@H]1C[C@H](n2c3c(cnc4ccc(Cl)cc43)nc2[C@H]2C[C@@H](F)C2)CCO1", "note": "[Example 2, 8-chloro-2-(cis-3-fluorocyclobutyl)-1-[(2R,4R)-2-methyltetrahydro-2H-pyran-4-yl]-1H-imidazo[4,5-c]quinoline]", "values": [{"measurement": "IC50", "setting": "[1]", "result": 8.99, "unit": "nM"}, {"measurement": "IC50", "setting": "[2]", "result": 5.49, "unit": "nM"}]}
{"smiles": "C[C@@H]1C[C@H](n2c3c(cnc4ccc(Cl)cc43)nc2[C@H]2CC[C@@H](F)CC2)CCO1", "note": "[Example 1, 8-chloro-2-(cis-4-fluorocyclohexyl)-1-[(2R,4R)-2-methyltetrahydro-2H-pyran-4-yl]-1H-imidazo[4,5-c]quinoline]", "values": [{"measurement": "IC50", "setting": "[1]", "result": 7.32, "unit": "nM"}, {"measurement": "IC50", "setting": "[2]", "result": 4.75, "unit": "nM"}]}
{"smiles": "C[C@@H]1C[C@H](n2c([C@H]3CCOC3)nc3cnc4ccc(C#N)cc4c32)CCO1", "note": "[Example 16, 1-[(2R,4R)-2-methyltetrahydro-2H-pyran-4-yl]-2-[(3R)-tetrahydrofuran-3-yl]-1H-imidazo[4,5-c]quinoline-8-carbonitrile]", "values": [{"measurement": "IC50", "setting": "[1]", "result": 16.2, "unit": "nM"}, {"measurement": "IC50", "setting": "[2]", "result": 10.6, "unit": "nM"}]}
{"smiles": "C[C@@H]1C[C@H](n2c(C3CCC(F)(F)C3)nc3cnc4ccc(Cl)cc4c32)CCO1", "note": "(stereo partly drawn) [Example 11, 8-chloro-2-(3,3-difluorocyclopentyl)-1-[(2R,4R)-2-methyltetrahydro-2H-pyran-4-yl]-1H-imidazo[4,5-c]quinoline]", "values": [{"measurement": "IC50", "setting": "[1]", "result": 20.3, "unit": "nM"}, {"measurement": "IC50", "setting": "[2]", "result": 13.8, "unit": "nM"}]}
{"smiles": "C[C@@H]1C[C@H](n2c([C@H]3CCOC3)nc3cnc4ccc(Cl)cc4c32)CCO1", "note": "[Example 4, 8-chloro-1-[(2R,4R)-2-methyltetrahydro-2H-pyran-4-yl]-2-[(3R)-tetrahydrofuran-3-yl]-1H-imidazo[4,5-c]quinoline]", "values": [{"measurement": "IC50", "setting": "[1]", "result": 12.3, "unit": "nM"}, {"measurement": "IC50", "setting": "[2]", "result": 7.4, "unit": "nM"}]}
